US9840520B2, “Heterocyclic hydroxamic acids as protein deacetylase inhibitors and dual protein deacetylase-protein kinase inhibitors and methods of use thereof” (The Regents of the University of Colorado, A Body Corporate, priority 2014, dated 2017)
One block for each molecule: values may come before it.

What was measured:
786-0 = assay: NCI60 tumour cell line screen, 786-0; type: cell-based; conditions: Homo sapiens; 786-0, Renal Cancer
A498 = assay: NCI60 tumour cell line screen, A498; type: cell-based; conditions: Homo sapiens; A498, Renal Cancer
ACHN = assay: NCI60 tumour cell line screen, ACHN; type: cell-based; conditions: Homo sapiens, Renal Cancer
CAKI-1 = assay: NCI60 tumour cell line screen, CAKI-1; type: cell-based; conditions: Homo sapiens; CAKI-1, Renal Cancer
RXF393 = assay: NCI60 tumour cell line screen, RXF393; type: cell-based; conditions: Homo sapiens, RXF 393; RXF393, Renal Cancer
SN12C = assay: NCI60 tumour cell line screen, SN12C; type: cell-based; conditions: Homo sapiens, Renal Cancer
TK-10 = assay: NCI60 tumour cell line screen, TK-10; type: cell-based; conditions: Homo sapiens; TK-10, Renal Cancer
UO-31 = assay: NCI60 tumour cell line screen, UO-31; type: cell-based; conditions: Homo sapiens; UO-31, Renal Cancer
A549/ATCC = assay: NCI60 tumour cell line screen, A549/ATCC; type: cell-based; conditions: Homo sapiens, Non-Small Cell Lung Cancer
HOP-62 = assay: NCI60 tumour cell line screen, HOP-62; type: cell-based; conditions: Homo sapiens; HOP-62, Non-Small Cell Lung Cancer
NCI-H226 = assay: NCI60 tumour cell line screen, NCI-H226; type: cell-based; conditions: Homo sapiens; NCI-H226, Non-Small Cell Lung Cancer
NCI-H23 = assay: NCI60 tumour cell line screen, NCI-H23; type: cell-based; conditions: Homo sapiens; NCI-H23, Non-Small Cell Lung Cancer
NCI-H322M = assay: NCI60 tumour cell line screen, NCI-H322M; type: cell-based; conditions: Homo sapiens, Non-Small Cell Lung Cancer
NCI-H460 = assay: NCI60 tumour cell line screen, NCI-H460; type: cell-based; conditions: Homo sapiens; NCI-H460, Non-Small Cell Lung Cancer
NCI-H522 = assay: NCI60 tumour cell line screen, NCI-H522; type: cell-based; conditions: Homo sapiens; NCI-H522, Non-Small Cell Lung Cancer
CCRF-CEM = assay: NCI60 tumour cell line screen, CCRF-CEM; type: cell-based; conditions: Homo sapiens, Leukemia
HL-60(TB) = assay: NCI60 tumour cell line screen, HL-60(TB); type: cell-based; conditions: Homo sapiens, Leukemia
K-562 = assay: NCI60 tumour cell line screen, K-562; type: cell-based; conditions: Homo sapiens, K562; K-562, Leukemia
MOLT-4 = assay: NCI60 tumour cell line screen, MOLT-4; type: cell-based; conditions: Homo sapiens; MOLT-4, Leukemia
RPMI-8226 = assay: NCI60 tumour cell line screen, RPMI-8226; type: cell-based; conditions: Homo sapiens; RPMI-8226, Leukemia
SR = assay: NCI60 tumour cell line screen, SR; type: cell-based; conditions: Homo sapiens, Leukemia
LOXIMVI = assay: NCI60 tumour cell line screen, LOXIMVI; type: cell-based; conditions: Homo sapiens, LOX IMVI, Melanoma
MALME-3M = assay: NCI60 tumour cell line screen, MALME-3M; type: cell-based; conditions: Homo sapiens, Melanoma
M14 = assay: NCI60 tumour cell line screen, M14; type: cell-based; conditions: Homo sapiens; M14, Melanoma
MDA-MB-435 = assay: NCI60 tumour cell line screen, MDA-MB-435; type: cell-based; conditions: Homo sapiens; MDA-MB-435, Melanoma
SK-MEL-2 = assay: NCI60 tumour cell line screen, SK-MEL-2; type: cell-based; conditions: Homo sapiens; SK-MEL-2, Melanoma
SK-MEL-28 = assay: NCI60 tumour cell line screen, SK-MEL-28; type: cell-based; conditions: Homo sapiens; SK-MEL-28, Melanoma
SK-MEL-5 = assay: NCI60 tumour cell line screen, SK-MEL-5; type: cell-based; conditions: Homo sapiens; SK-MEL-5, Melanoma
UACC-257 = assay: NCI60 tumour cell line screen, UACC-257; type: cell-based; conditions: Homo sapiens; UACC-257, Melanoma
UACC-62 = assay: NCI60 tumour cell line screen, UACC-62; type: cell-based; conditions: Homo sapiens; UACC-62, Melanoma
IGROV1 = assay: NCI60 tumour cell line screen, IGROV1; type: cell-based; conditions: Homo sapiens, IGROV-1; IGROV1, Ovarian Cancer
OVCAR-3 = assay: NCI60 tumour cell line screen, OVCAR-3; type: cell-based; conditions: Homo sapiens; OVCAR-3, Ovarian Cancer
OVCAR-4 = assay: NCI60 tumour cell line screen, OVCAR-4; type: cell-based; conditions: Homo sapiens; OVCAR-4, Ovarian Cancer
OVCAR-5 = assay: NCI60 tumour cell line screen, OVCAR-5; type: cell-based; conditions: Homo sapiens; OVCAR-5, Ovarian Cancer
OVCAR-8 = assay: NCI60 tumour cell line screen, OVCAR-8; type: cell-based; conditions: Homo sapiens; OVCAR-8, Ovarian Cancer
NCI/ADR-RES = assay: NCI60 tumour cell line screen, NCI/ADR-RES; type: cell-based; conditions: Homo sapiens, Ovarian Cancer
SK-OV-3 = assay: NCI60 tumour cell line screen, SK-OV-3; type: cell-based; conditions: Homo sapiens; SK-OV-3, Ovarian Cancer
SF-268 = assay: NCI60 tumour cell line screen, SF-268; type: cell-based; conditions: Homo sapiens; SF-268, CNS Cancer
SF-295 = assay: NCI60 tumour cell line screen, SF-295; type: cell-based; conditions: Homo sapiens; SF-295, CNS Cancer
SF-539 = assay: NCI60 tumour cell line screen, SF-539; type: cell-based; conditions: Homo sapiens; SF-539, CNS Cancer
SNB-19 = assay: NCI60 tumour cell line screen, SNB-19; type: cell-based; conditions: Homo sapiens; SNB-19, CNS Cancer
SNB-75 = assay: NCI60 tumour cell line screen, SNB-75; type: cell-based; conditions: Homo sapiens; SNB-75, CNS Cancer
U251 = assay: NCI60 tumour cell line screen, U251; type: cell-based; conditions: Homo sapiens, U-251; U251, CNS Cancer
MCF7 = assay: NCI60 tumour cell line screen, MCF7; type: cell-based; conditions: Homo sapiens; MCF7, Breast Cancer
MDA-MB-231/ATCC = assay: NCI60 tumour cell line screen, MDA-MB-231/ATCC; type: cell-based; conditions: Homo sapiens, Breast Cancer
HS578T = assay: NCI60 tumour cell line screen, HS578T; type: cell-based; conditions: Homo sapiens, Hs-578T, Breast Cancer
BT-549 = assay: NCI60 tumour cell line screen, BT-549; type: cell-based; conditions: Homo sapiens; BT-549, Breast Cancer
T-47D = assay: NCI60 tumour cell line screen, T-47D; type: cell-based; conditions: Homo sapiens, T47D, Breast Cancer
MDA-MB-468 = assay: NCI60 tumour cell line screen, MDA-MB-468; type: cell-based; conditions: Homo sapiens; MDA-MB-468, Breast Cancer
COLO205 = assay: NCI60 tumour cell line screen, COLO205; type: cell-based; conditions: Homo sapiens, COLO 205; COLO205, Colon Cancer
HCC-2998 = assay: NCI60 tumour cell line screen, HCC-2998; type: cell-based; conditions: Homo sapiens; HCC-2998, Colon Cancer
HCT-116 = assay: NCI60 tumour cell line screen, HCT-116; type: cell-based; conditions: Homo sapiens; HCT-116, Colon Cancer
HCT-15 = assay: NCI60 tumour cell line screen, HCT-15; type: cell-based; conditions: Homo sapiens; HCT-15, Colon Cancer
HT29 = assay: NCI60 tumour cell line screen, HT29; type: cell-based; conditions: Homo sapiens, HT-29; HT29, Colon Cancer
KM12 = assay: NCI60 tumour cell line screen, KM12; type: cell-based; conditions: Homo sapiens; KM12, Colon Cancer
SW-620 = assay: NCI60 tumour cell line screen, SW-620; type: cell-based; conditions: Homo sapiens; SW-620, Colon Cancer
PC-3 = assay: NCI60 tumour cell line screen, PC-3; type: cell-based; conditions: Homo sapiens; PC-3, Prostate Cancer
DU-145 = assay: NCI60 tumour cell line screen, DU-145; type: cell-based; conditions: Homo sapiens; DU-145, Prostate Cancer
ovarian xenograft = conditions: cited from earlier work
TTK/Mps1 = TTK/Mps1 (Homo sapiens, UniProt P33981); conditions: TTK/Mps1 inhibitors of the literature; cited from earlier work
HDAC-1 = HDAC-1 (Homo sapiens, UniProt Q13547); assay: HDAC Fluorescent Activity Assay (Fluor de Lys), HDAC-1
HDAC-2 = HDAC-2 (Homo sapiens, UniProt Q92769); assay: HDAC Fluorescent Activity Assay (Fluor de Lys), HDAC-2
HDAC-3 = HDAC-3 (Homo sapiens, UniProt O15379); assay: HDAC Fluorescent Activity Assay (Fluor de Lys), HDAC-3
HDAC-8 = HDAC-8 (Homo sapiens, UniProt Q9BY41); assay: HDAC Fluorescent Activity Assay (Fluor de Lys), HDAC-8
HDAC-4 = HDAC-4 (Homo sapiens, UniProt P56524); assay: HDAC Fluorescent Activity Assay (Fluor de Lys), HDAC-4
HDAC-5 = HDAC-5 (Homo sapiens, UniProt Q9UQL6); assay: HDAC Fluorescent Activity Assay (Fluor de Lys), HDAC-5
HDAC-7 = HDAC-7 (Homo sapiens, UniProt Q8WUI4); assay: HDAC Fluorescent Activity Assay (Fluor de Lys), HDAC-7
HDAC-9 = HDAC-9 (Homo sapiens, UniProt Q9UKV0); assay: HDAC Fluorescent Activity Assay (Fluor de Lys), HDAC-9
HDAC-6 = HDAC-6 (Homo sapiens, UniProt Q9UBN7); assay: HDAC Fluorescent Activity Assay (Fluor de Lys), HDAC-6
HDAC-10 = HDAC-10 (Homo sapiens, UniProt Q969S8); assay: HDAC Fluorescent Activity Assay (Fluor de Lys), HDAC-10
HDAC-11 = HDAC-11 (Homo sapiens, UniProt Q96DB2); assay: HDAC Fluorescent Activity Assay (Fluor de Lys), HDAC-11

HDAC-2, sequence (Q92769 whole entry): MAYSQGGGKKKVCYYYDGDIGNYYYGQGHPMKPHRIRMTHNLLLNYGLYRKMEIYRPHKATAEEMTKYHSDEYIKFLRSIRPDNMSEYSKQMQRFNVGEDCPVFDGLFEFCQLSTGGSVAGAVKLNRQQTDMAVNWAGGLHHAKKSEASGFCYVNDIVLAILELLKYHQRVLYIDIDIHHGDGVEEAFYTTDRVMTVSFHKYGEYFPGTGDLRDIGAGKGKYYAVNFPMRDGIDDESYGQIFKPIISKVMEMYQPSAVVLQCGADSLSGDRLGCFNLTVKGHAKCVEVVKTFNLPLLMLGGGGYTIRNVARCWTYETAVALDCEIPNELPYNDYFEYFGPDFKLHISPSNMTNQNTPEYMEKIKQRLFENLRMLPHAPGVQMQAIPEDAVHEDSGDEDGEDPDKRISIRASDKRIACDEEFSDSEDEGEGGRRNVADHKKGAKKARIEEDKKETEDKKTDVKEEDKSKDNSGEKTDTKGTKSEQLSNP
HDAC-1, sequence (Q13547 whole entry): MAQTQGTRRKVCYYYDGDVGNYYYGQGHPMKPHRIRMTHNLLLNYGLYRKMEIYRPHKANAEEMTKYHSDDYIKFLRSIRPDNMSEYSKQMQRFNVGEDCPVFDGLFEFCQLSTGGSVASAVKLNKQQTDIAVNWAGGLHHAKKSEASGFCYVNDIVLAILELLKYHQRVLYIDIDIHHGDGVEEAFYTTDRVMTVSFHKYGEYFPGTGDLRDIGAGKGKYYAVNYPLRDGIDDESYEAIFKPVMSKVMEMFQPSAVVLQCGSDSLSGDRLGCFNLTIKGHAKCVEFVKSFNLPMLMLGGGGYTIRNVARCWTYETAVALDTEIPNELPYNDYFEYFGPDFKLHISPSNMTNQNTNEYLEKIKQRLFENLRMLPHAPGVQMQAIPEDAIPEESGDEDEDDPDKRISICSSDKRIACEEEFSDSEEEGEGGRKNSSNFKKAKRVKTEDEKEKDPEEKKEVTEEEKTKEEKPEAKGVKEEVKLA
HDAC-10, sequence (Q969S8 whole entry): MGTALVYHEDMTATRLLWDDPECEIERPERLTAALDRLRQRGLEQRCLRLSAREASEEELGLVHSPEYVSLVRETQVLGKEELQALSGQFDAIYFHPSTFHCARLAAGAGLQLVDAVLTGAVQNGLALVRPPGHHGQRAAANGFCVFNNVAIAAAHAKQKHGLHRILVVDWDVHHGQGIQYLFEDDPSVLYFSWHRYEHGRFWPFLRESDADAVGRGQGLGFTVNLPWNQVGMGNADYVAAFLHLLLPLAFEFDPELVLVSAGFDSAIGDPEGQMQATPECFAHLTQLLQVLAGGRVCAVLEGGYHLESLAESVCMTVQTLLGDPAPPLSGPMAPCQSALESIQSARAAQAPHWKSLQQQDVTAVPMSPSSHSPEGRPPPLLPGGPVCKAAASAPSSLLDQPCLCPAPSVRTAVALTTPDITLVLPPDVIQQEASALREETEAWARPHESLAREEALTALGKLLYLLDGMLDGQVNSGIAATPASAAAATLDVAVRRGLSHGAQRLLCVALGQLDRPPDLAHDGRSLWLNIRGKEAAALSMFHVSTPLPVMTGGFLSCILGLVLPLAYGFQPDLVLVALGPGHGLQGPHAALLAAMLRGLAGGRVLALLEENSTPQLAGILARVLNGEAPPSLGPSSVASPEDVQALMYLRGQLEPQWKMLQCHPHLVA
HDAC-6, sequence (Q9UBN7 whole entry): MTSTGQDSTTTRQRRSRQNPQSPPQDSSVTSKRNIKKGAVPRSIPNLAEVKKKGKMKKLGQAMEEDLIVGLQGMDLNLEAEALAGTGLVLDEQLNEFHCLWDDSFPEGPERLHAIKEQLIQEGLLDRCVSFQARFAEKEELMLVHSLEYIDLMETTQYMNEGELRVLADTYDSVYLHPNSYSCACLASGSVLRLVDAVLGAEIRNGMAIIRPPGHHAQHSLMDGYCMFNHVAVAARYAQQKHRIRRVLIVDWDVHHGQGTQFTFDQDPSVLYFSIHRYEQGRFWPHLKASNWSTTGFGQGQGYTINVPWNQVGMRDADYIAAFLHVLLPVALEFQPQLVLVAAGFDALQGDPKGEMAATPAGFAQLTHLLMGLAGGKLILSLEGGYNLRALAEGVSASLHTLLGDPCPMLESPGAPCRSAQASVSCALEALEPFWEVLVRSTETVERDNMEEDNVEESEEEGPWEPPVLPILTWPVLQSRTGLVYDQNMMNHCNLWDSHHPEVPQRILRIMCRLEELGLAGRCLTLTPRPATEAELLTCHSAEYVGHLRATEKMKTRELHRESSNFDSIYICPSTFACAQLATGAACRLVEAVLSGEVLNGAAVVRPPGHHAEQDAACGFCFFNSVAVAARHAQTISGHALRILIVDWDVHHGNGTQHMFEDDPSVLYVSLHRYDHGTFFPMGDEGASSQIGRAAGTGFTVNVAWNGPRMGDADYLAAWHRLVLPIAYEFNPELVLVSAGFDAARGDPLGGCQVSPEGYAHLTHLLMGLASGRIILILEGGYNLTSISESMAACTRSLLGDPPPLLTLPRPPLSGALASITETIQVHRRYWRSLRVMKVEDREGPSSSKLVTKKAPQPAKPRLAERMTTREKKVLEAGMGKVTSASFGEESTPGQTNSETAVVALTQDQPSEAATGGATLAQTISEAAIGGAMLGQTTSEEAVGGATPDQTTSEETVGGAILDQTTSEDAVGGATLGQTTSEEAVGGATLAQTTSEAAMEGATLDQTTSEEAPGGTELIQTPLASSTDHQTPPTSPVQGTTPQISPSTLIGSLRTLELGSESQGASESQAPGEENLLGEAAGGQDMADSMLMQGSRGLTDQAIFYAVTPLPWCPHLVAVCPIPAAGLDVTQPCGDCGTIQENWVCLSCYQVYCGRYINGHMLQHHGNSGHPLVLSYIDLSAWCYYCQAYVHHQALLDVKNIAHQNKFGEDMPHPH
HDAC-5, sequence (Q9UQL6 whole entry): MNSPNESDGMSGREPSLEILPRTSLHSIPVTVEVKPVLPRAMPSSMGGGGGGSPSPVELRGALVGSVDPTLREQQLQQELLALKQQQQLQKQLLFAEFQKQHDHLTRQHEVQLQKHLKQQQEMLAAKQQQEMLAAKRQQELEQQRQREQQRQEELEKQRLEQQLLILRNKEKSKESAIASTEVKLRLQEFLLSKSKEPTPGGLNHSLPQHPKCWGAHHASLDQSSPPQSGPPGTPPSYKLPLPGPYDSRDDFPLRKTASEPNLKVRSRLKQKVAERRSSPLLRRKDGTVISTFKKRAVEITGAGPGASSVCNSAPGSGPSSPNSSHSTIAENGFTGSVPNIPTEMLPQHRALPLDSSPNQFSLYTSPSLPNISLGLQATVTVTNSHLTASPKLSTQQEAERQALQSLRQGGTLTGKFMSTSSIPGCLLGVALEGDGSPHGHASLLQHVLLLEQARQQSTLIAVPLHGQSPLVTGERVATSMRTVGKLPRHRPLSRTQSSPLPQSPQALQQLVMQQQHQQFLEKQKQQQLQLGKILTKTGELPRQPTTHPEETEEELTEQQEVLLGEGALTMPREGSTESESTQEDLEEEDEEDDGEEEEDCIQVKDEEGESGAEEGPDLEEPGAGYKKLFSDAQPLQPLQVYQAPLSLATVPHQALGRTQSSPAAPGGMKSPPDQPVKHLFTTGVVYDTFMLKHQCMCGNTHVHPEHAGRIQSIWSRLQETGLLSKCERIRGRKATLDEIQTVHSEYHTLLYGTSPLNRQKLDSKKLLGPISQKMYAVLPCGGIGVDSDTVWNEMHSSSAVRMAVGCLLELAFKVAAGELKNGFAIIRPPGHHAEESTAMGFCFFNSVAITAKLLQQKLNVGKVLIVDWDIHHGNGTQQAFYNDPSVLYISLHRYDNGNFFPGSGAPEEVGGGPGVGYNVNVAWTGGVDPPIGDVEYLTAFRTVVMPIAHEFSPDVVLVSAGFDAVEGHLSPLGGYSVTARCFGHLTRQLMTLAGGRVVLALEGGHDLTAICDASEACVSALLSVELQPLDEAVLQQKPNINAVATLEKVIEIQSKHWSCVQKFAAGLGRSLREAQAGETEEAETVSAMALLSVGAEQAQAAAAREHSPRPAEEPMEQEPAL
HDAC-7, sequence (Q8WUI4 whole entry): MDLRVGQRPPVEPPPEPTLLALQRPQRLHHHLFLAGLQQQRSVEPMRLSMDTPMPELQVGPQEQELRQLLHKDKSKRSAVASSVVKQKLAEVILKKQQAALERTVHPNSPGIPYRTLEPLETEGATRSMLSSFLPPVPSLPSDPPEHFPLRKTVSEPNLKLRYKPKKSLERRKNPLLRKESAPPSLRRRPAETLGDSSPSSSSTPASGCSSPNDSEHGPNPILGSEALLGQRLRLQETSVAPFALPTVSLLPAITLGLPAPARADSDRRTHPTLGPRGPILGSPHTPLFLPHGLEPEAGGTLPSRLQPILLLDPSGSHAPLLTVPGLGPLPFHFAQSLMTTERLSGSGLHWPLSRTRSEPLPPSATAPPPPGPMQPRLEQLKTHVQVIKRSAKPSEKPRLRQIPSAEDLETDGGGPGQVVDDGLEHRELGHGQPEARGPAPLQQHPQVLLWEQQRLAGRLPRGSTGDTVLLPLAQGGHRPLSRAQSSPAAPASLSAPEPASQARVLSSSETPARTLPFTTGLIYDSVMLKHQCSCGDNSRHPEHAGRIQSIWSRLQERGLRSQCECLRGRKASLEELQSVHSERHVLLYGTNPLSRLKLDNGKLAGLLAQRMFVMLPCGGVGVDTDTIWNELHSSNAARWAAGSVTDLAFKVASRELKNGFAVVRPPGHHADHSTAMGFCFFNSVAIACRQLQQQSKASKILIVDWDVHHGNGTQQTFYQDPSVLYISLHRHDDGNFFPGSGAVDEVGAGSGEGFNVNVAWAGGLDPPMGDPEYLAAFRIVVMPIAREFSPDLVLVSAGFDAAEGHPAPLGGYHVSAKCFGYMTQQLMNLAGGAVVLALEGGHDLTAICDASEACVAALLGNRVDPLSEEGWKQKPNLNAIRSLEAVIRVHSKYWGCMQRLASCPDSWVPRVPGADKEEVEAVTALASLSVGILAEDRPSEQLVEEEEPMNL

Compound: O=C(CCCCCOc1ccc(Nc2nc(NC3CCCCC3)c3nc[nH]c3n2)cc1)NO [Example 3, 6-(4-(6-(cyclohexylamino)-9H-purin-2-ylamino)phenoxy)-N-hydroxyhexanamide]
- GI50 (786-0): 4.61 µM
- GI50 (A498): 195 nM
- GI50 (ACHN): 3.57 µM
- GI50 (CAKI-1): 4.68 µM
- GI50 (RXF393): 1900 nM
- GI50 (SN12C): 3.23 µM
- GI50 (TK-10): 2680 nM
- GI50 (UO-31): 3.52 µM
- GI50 (A549/ATCC): 2300 nM
- GI50 (HOP-62): 2960 nM
- GI50 (NCI-H226): 2880 nM
- GI50 (NCI-H23): 4.73 µM
- GI50 (NCI-H322M): 3000 nM
- GI50 (NCI-H460): 2040 nM
- GI50 (NCI-H522): 2720 nM
- GI50 (CCRF-CEM): 667 nM
- GI50 (HL-60(TB)): 2950 nM
- GI50 (K-562): 2030 nM
- GI50 (MOLT-4): 1780 nM
- GI50 (RPMI-8226): 2810 nM
- GI50 (SR): 669 nM
- GI50 (LOXIMVI): 1180 nM
- GI50 (MALME-3M): 2490 nM
- GI50 (M14): 1960 nM
- GI50 (MDA-MB-435): 2460 nM
- GI50 (SK-MEL-2): 2930 nM
- GI50 (SK-MEL-28): 3.64 µM
- GI50 (SK-MEL-5): 2820 nM
- GI50 (UACC-257): 2940 nM
- GI50 (UACC-62): 2220 nM
- GI50 (IGROV1): 2240 nM
- GI50 (OVCAR-3): 2170 nM
- GI50 (OVCAR-4): 3.82 µM
- GI50 (OVCAR-5): 2260 nM
- GI50 (OVCAR-8): 2800 nM
- GI50 (NCI/ADR-RES): 13.5 µM
- GI50 (SK-OV-3): 2520 nM
- GI50 (SF-268): 3.83 µM
- GI50 (SF-295): 2350 nM
- GI50 (SF-539): 1570 nM
- GI50 (SNB-19): 5.96 µM
- GI50 (SNB-75): 1690 nM
- GI50 (U251): 1960 nM
- GI50 (MCF7): 1460 nM
- GI50 (MDA-MB-231/ATCC): 1930 nM
- GI50 (HS578T): 1610 nM
- GI50 (BT-549): 5.51 µM
- GI50 (T-47D): 2330 nM
- GI50 (MDA-MB-468): 2400 nM
- GI50 (COLO205): 1260 nM
- GI50 (HCC-2998): 3.58 µM
- GI50 (HCT-116): 1450 nM
- GI50 (HCT-15): 4.3 µM
- GI50 (HT29): 2540 nM
- GI50 (KM12): 1740 nM
- GI50 (SW-620): 895 nM
- GI50 (PC-3): 2980 nM
- GI50 (DU-145): 2510 nM

Compound: CCc1cccc(CC)c1NC(=O)c1nn(C)c2c1CCc1cnc(Nc3ccc(C(=O)NC4CCN(C)CC4)cc3OC(F)(F)F)nc1-2 [NMS-P715]
- efficacy in an ovarian xenograft (ovarian xenograft): promising efficacies

Compound: Oc1c2ccccc2c2c3c(cccc13)N=N2 [SP600125]
- IC50 (TTK/Mps1): 250 nM

- IC50 (HDAC-1): 23 nM
- IC50 (HDAC-2): 124 nM
- IC50 (HDAC-3): 140 nM
- IC50 (HDAC-8): 268 nM
- IC50 (HDAC-4): > 100 µM
- IC50 (HDAC-5): > 100 µM
- IC50 (HDAC-7): > 100 µM
- IC50 (HDAC-9): > 100 µM
- IC50 (HDAC-6): 6.8 nM
- IC50 (HDAC-10): 19 nM
- IC50 (HDAC-11): 12 nM
Compound: Cn1cnc2c(NC3CCCCC3)nc(Nc3ccc(OCCCCCCC(=O)NO)cc3)nc21 [Example 8, 7-(4-(6-(Cyclohexylamino)-9-methyl-9H-purin-2-ylamino)phenoxy)-N-hydroxyheptanamide]

- IC50 (HDAC-1): 422 nM
- IC50 (HDAC-2): 1640 nM
- IC50 (HDAC-3): 1180 nM
- IC50 (HDAC-8): 225 nM
- IC50 (HDAC-4): > 100 µM
- IC50 (HDAC-5): > 100 µM
- IC50 (HDAC-7): > 100 µM
- IC50 (HDAC-9): > 100 µM
- IC50 (HDAC-6): 9.8 nM
- IC50 (HDAC-10): 284 nM
- IC50 (HDAC-11): 159 nM
Compound: Cn1cnc2c(NC3CCCCC3)nc(Nc3ccc(OCCCCCC(=O)NO)cc3)nc21 [Example 9, 6-(4-(6-(cyclohexylamino)-9-methyl-9H-purin-2-ylamino)phenoxy)-N-hydroxyhexanamide]
